Reference: patent US10189826B2, “Heterocyclic compounds and methods of use” (Medivation Technologies LLC, priority 2015, dated 2019)
Like-named read-outs stand apart in the source and are kept apart here.

Key:
[1] = system: SREBP-2 transcriptional activity (SREBP2 cleavage) in HepG2_LSSprom cells; experiment: Luciferase reporter driven by a SREBP-2 specific promoter in HepG2_LSSprom cells; format: cell-based
Procedure: Dose response effects were measured of Compounds on the transcriptional activity of a Luciferase reporter driven by a SREBP-2 specific promoter in HepG2_LSSprom cells.
(§1) HepG2_LSSprom cells (SwitchGear Genomics, cat# C711010L) were cultured in DMEM with 10% of fetal bovine serum (FBS), supplemented with Puromycin (1 μg/mL), 1% Penicillin/Streptomycin (Pen-Strep), 37° C., humidified, 95% air and 5% CO2. Culture media was refreshed every 2 or 3 days. Cells were used between passage number 6-12.
For luminescence assays, cells were plated out at 20,000 cells/well in white 96 well plates in DMEM plus 10% FBS and 1% Pen-Strep without puromycin. After 1 day, cells were treated with Compound by diluting the drug in culture medium without FBS to a final concentration of 0.625, 1.25, 2.5, 3.75, 5 and 10 μM. Drug was prepared by dilutions of 10 mM stock aliquots. As control was used culture medium without FBS plus DMSO. Treatments with Compound were maintained for 6 h, or 24 h, until the luciferase assay was carried out.
After 6 h of treatments with Compound, the luciferase assay was performed. Briefly, the assay solution (buffer+substrate) was prepare just prior to use. To each well 100 μL of assay solution was added. The 96-well plate was then gently mix for 2 min and incubated for 30 min at RT protected from light. The luminescence was read using a Synergy 4 (Biotek) equipment recording luminescence with sensibility set up at 150.
(§2) Five independent experiments were carried out for both luciferase and cytotoxicity assay. In each experiment, three wells were use per condition and the results are represented as means±SEM.
For luciferase assay, Vehicle (no treatment) was taken as 100% of luciferase activity. This value represents the SREBP-2 transcriptional activity for the vehicle condition and was taken as 100% of SREBP-2 cleaved. The percentage for each treatment was calculated normalizing against the vehicle control. The graphics were made using the GraphPad Prism ver. 6.05 software. Half of maximal inhibitory concentration (IC50) of the effect of Compound on SREBP was obtain by nonlinear fit regression of mean normalized values vs. Compound concentration using the log(inhibitor) vs. response−Variable slope (four parameters) tool.

[2] = Cytotoxicity assay (LDH release) in HepG2_LSSprom cells; format: cell-based; settings: human, HepG2 LSSprom cells, LDH release; for IC50 at 24 h: 24 h treatment; for IC50 at 6 h: 6 h treatment
Procedure: as §1
For cytotoxicity assays, cells were plated out at 20,000 cells/well in transparent 96 well plates in DMEM plus 10% FBS and 1% Pen-Strep without puromycin. After 1 day, cells were treated with Compound by diluting in culture medium without FBS to a final concentration of 0.625, 1.25, 2.5, 3.75, 5 and 10 μM. Compound was prepared by dilutions of 10 mM stock aliquots. As a negative control culture medium was used without FBS plus DMSO. As maximum LDH release control (Lysis control) a lysis buffer provided by the kit manufacturer was used. Treatments with Compound were maintained for 6 h, or 24 h, in cell culture medium without serum until the cytotoxicity assay was started.
The cytotoxicity assay was performed according to the manufacturer's instructions. As maximum LDH release control (Lysis control) 3 wells per plate were treated with 10 μL of lysis buffer 45 min before the treatment was over. Briefly, after the 6 h, or 24 h, of treatment, 50 μL of media from each well was transferred to a new 96-well plate. To the transferred media, 50 μL of reconstituted substrate mix was added. The plates were covered from light and incubated at RT for 10 min. Then, 50 μL of stop solution was added to each well. The plates were then read using a Synergy 4 (Biotek) equipment recording the absorbance at 490 nm.
as §2
For cytotoxicity assay, Lysis control was taken as 100%/o of LDH release. The vehicle values were taken as basal LDH release and were subtracted to all the treatments (including vehicle itself) having this value as 0% of LDH release. The LDH release for the treatments was calculated respect to the 100% of LDH release of Lysis control normalized against vehicle. All the negatives values were taken as 0% of cytotoxicity. The graphics were made using the Graph Prism ver. 6.05 software.

[3] = 24 h, 24 h treatment, HepG2_LSSprom cells, read-out: SREBP2 Cleavage (IC50 μM) 24 h
[4] = 6 h, 6 h treatment, HepG2_LSSprom cells, read-out: SREBP2 Cleavage (IC50 μM) 6 h

| Structure (SMILES) | IC50 [1, 3] [µM] | IC50 at 24 h [2] [µM] | IC50 [1, 4] [µM] | other results |
| --- | --- | --- | --- | --- |
| CC(C)(C)OC(=O)NC1CCCN(C(=O)c2ccc(-c3csc(-c4ccnc(C(C)(C)C)c4)c3)c(Cl)c2)C1 (racemic) [Compound 19, tert-butyl N-(1-{4-[5-(2-tert-butylpyridin-4-yl)thiophen-3-yl]-3-chlorobenzoyl}piperidin-3-yl)carbamate] | 0.25 | > 3 |  |  |
| CC(C)(C)c1cc(-c2cc(-c3ccc(C(=O)N4CCCC(N)C4)cc3Cl)cs2)ccn1 (racemic) [Compound 21, 1-{4-[5-(2-tert-butylpyridin-4-yl)thiophen-3-yl]-3-chlorobenzoyl}piperidin-3-amine] | > 1 | > 3 |  |  |
| CC(C)(C)c1cc(-c2cc(-c3ccc(C(=O)N4CCCC(NS(C)(=O)=O)C4)cc3Cl)cs2)ccn1 (racemic) [Compound 31, N-(1-{4-[5-(2-tert-butylpyridin-4-yl)thiophen-3-yl]-3-chlorobenzoyl}piperidin-3-yl)methanesulfonamide] | 0.99 | > 10 |  |  |
| CC(=O)NC1CCCN(C(=O)c2ccc(-c3csc(-c4ccnc(C(C)(C)C)c4)c3)c(Cl)c2)C1 (racemic) [Compound 32, N-[1-[4-[5-(2-tert-butyl-4-pyridyl)-3-thienyl]-3-chloro-benzoyl]-3-piperidyl]acetamide] |  | > 10 |  | IC50 ([1]; 24 h, read-out: SREBP2 Cleavage (IC50 μM) 24 h): 0.81 µM |
| CC(C)(C)c1cc(-c2cc(-c3ccc(C(=O)N4CCCC(N5CCCC5=O)C4)cc3Cl)cs2)ccn1 (racemic) [Compound 34, 1-(1-{4-[5-(2-tert-butylpyridin-4-yl)thiophen-3-yl]-3-chlorobenzoyl}piperidin-3-yl) pyrrolidin-2-one] | 0.85 | > 10 |  |  |
| CC(C)(C)c1cc(-c2cc(-c3ccc(C(=O)N4CCCC(N5CCCS5(=O)=O)C4)cc3Cl)cs2)ccn1 (racemic) [Compound 36, 2-(1-{4-[5-(2-tert-butylpyridin-4-yl)thiophen-3-yl]-3-chlorobenzoyl}piperidin-3-yl)-1λ^6,2-thiazolidine-1,1-dione] | 0.49 | > 10 |  |  |
| CC1(N)CCCN(C(=O)c2ccc(-c3cc(-c4ccnc(C(C)(C)C)c4)cs3)c(Cl)c2)C1 (single isomer, unassigned) [Compound 95a] |  | > 10 |  | IC50 ([1]; 24 h treatment, HepG2_LSSprom cells, read-out: SREBP2 Cleavage (IC50 μM) 24 h): 0.26 µM |
| CC(C)(C)c1cc(-c2cc(-c3ccc(C(=O)N4CCNC(=O)C4)cc3Cl)cs2)ccn1 [Compound 7, 4-{4-[5-(2-tert-butylpyridin-4-yl)thiophen-3-yl]-3-chlorobenzoyl}piperazin-2-one] | > 1 | > 3 |  |  |
| CC(C)(C)c1cc(-c2cc(-c3ccc(C(=O)NC4CCC4)cc3Cl)cs2)ccn1 [Compound 8, 4-[5-(2-tert-butylpyridin-4-yl)thiophen-3-yl]-3-chloro-N-cyclobutylbenzamide] | > 3 | > 3 |  |  |
| CN1CCN(C(=O)c2ccc(-c3csc(-c4ccnc(C(C)(C)C)c4)c3)c(Cl)c2)CC1 [Compound 10, 1-{4-[5-(2-tert-butylpyridin-4-yl)thiophen-3-yl]-3-chlorobenzoyl}-4-methylpiperazine] | > 3 |  |  |  |
| CC(C)(C)c1cc(-c2cc(-c3ccc(C(=O)N4CCCCC4)cc3Cl)cs2)ccn1 [Compound 11, 2-tert-butyl-4-{4-[2-chloro-4-(piperidine-1-carbonyl)phenyl]thiophen-2-yl}pyridine] | 0.3 |  | < 1 | IC50 at 6 h [2]: > 10 µM |
| CC(C)(C)c1cc(-c2cc(-c3ccc(C(=O)N4CCC(F)(F)C4)cc3Cl)cs2)ccn1 [Compound 12, 2-tert-butyl-4-{4-[2-chloro-4-(3,3-difluoropyrrolidine-1-carbonyl)phenyl]thiophen-2-yl}pyridine] | 0.5 |  | > 10 | IC50 at 6 h [2]: > 10 µM |
| CC(C)(C)c1cc(-c2cc(-c3ccc(C(=O)N4CCC(F)(F)CC4)cc3Cl)cs2)ccn1 [Compound 13, 2-tert-butyl-4-{4-[2-chloro-4-(4,4-difluoropiperidine-1-carbonyl)phenyl]thiophen-2-yl}pyridine] | 0.54 |  | > 10 | IC50 at 6 h [2]: > 10 µM |
| CC(C)(C)c1cc(-c2cc(-c3ccc(C(=O)NC4CC4)cc3Cl)cs2)ccn1 [Compound 14, 4-[5-(2-tert-butylpyridin-4-yl)thiophen-3-yl]-3-chloro-N-cyclopropylbenzamide] |  |  | 3.17 |  |
| CC(C)(C)NC(=O)c1ccc(-c2csc(-c3ccnc(C(C)(C)C)c3)c2)c(Cl)c1 [Compound 15, N-tert-butyl-4-[5-(2-tert-butylpyridin-4-yl)thiophen-3-yl]-3-chlorobenzamide] |  |  | > 5 |  |
| Cc1sc(-c2ccnc(C(C)(C)C)c2)cc1-c1ccc(C(=O)N2CCCCC2)cc1Cl [Compound 16, 2-tert-butyl-4-{4-[2-chloro-4-(piperidine-1-carbonyl)phenyl]-5-methylthiophen-2-yl}pyridine] | 0.81 | > 3 |  |  |
| O=C(c1ccc(-c2csc(-c3ccnc(N4CCCCC4)c3)n2)c(Cl)c1)N1CCOCC1 [Compound 17, 4-(3-chloro-4-{2-[2-(piperidin-1-yl)pyridin-4-yl]-1,3-thiazol-4-yl}benzoyl) morpholine] | > 3 |  | > 3 |  |
| CC(O)CNC(=O)c1ccc(-c2csc(-c3ccnc(N4CCCCC4)c3)n2)c(Cl)c1 (stereo not drawn) [Compound 18, 3-chloro-N-(2-hydroxypropyl)-4-{2-[2-(piperidin-1-yl)pyridin-4-yl]-1,3-thiazol-4-yl}benzamide] | > 3 |  | > 3 |  |
| CC(C)(C)OC(=O)N[C@@H]1CCCN(C(=O)c2ccc(-c3csc(-c4ccnc(C(C)(C)C)c4)c3)c(Cl)c2)C1 [Compound 19a, tert-butyl (R)-(1-(4-(5-(2-(tert-butyl)pyridin-4-yl)thiophen-3-yl)-3-chlorobenzoyl)piperidin-3-yl)carbamate] | 0.069 | > 10 |  |  |
| CC(C)(C)OC(=O)N[C@H]1CCCN(C(=O)c2ccc(-c3csc(-c4ccnc(C(C)(C)C)c4)c3)c(Cl)c2)C1 [Compound 19b, tert-butyl (S)-(1-(4-(5-(2-(tert-butyl)pyridin-4-yl)thiophen-3-yl)-3-chlorobenzoyl)piperidin-3-yl)carbamate] | 0.22 | > 10 |  |  |
| CC(C)(C)c1cc(-c2cc(-c3ccc(C(=O)N4CCS(=O)(=O)CC4)cc3Cl)cs2)ccn1 [Compound 20, 4-{4-[5-(2-tert-butylpyridin-4-yl)thiophen-3-yl]-3-chlorobenzoyl}-1λ^6,4-thiomorpholine-1,1-dione] | > 3 |  |  |  |
| CC(C)(C)c1cc(-c2cc(-c3ccc(C(=O)N4CCC[C@@H](N)C4)cc3Cl)cs2)ccn1 [Compound 21a, (R)-(3-aminopiperidin-1-yl)(4-(5-(2-(tert-butyl)pyridin-4-yl)thiophen-3-yl)-3-chlorophenyl)methanone] | 0.71 | > 10 |  |  |
| CC(C)(C)c1cc(-c2cc(-c3ccc(C(=O)N4CCC[C@H](N)C4)cc3Cl)cs2)ccn1 [Compound 21b, (S)-(3-aminopiperidin-1-yl)(4-(5-(2-(tert-butyl)pyridin-4-yl)thiophen-3-yl)-3-chlorophenyl)methanone] | > 3 | > 10 |  |  |
